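These data come from cells grown in 96-well plates and exposed to compound for 48 hours at five concentrations. TGI is the concentration that stops growth completely.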
Columns and labels:
Experiment in all cases: NCI tumour cell line growth inhibition, 48 h
[1] = test system: KM12 colon
[2] = test system: SF-268 CNS
[3] = test system: UACC-62 melanoma
[4] = test system: SR leukemia
[5] = test system: SK-MEL-28 melanoma
[6] = test system: SNB-19 CNS
[7] = test system: MDA-N
[8] = test system: HOP-62 NSCLC
[9] = test system: NCI-H226 lung
[10] = test system: DU-145 prostate
[11] = test system: HS 578T breast
[12] = test system: RPMI-8226 leukemia
[13] = test system: OVCAR-5 ovarian
[14] = test system: RXF 393 renal
[15] = test system: OVCAR-3 ovarian
[16] = test system: HL-60(TB) leukemia
[17] = test system: LOX IMVI melanoma
[18] = test system: SF-539 CNS
[19] = test system: MDA-MB-435
[20] = test system: K-562 leukemia
[21] = test system: UACC-257 melanoma
[22] = test system: PC-3 prostate
[23] = test system: ACHN renal
[24] = test system: SF-295 CNS
[25] = test system: SK-MEL-2 melanoma
[26] = test system: UO-31 renal
[27] = test system: T-47D breast
[28] = test system: HCT-15 colon
[29] = test system: SK-OV-3 ovarian
[30] = test system: HT29 colon
[31] = test system: MDA-MB-231 breast
[32] = test system: CCRF-CEM leukemia
[33] = test system: EKVX NSCLC
[34] = test system: NCI/ADR-RES ovarian
[35] = test system: HCT-116 colon
[36] = test system: CAKI-1 renal
[37] = test system: U251 CNS
[38] = test system: M14 melanoma
[39] = test system: SNB-75 CNS
[40] = test system: MCF7 breast
[41] = test system: NCI-H23 lung
[42] = test system: OVCAR-8 ovarian
[43] = test system: A498 renal
[44] = test system: MOLT-4 leukemia
[45] = test system: SN12C renal
[46] = test system: SW-620 colon
[47] = test system: TK-10 renal
[48] = test system: A549 NSCLC
[49] = test system: IGROV1 ovarian
[50] = test system: HOP-92 NSCLC
[51] = test system: COLO 205 colon
[52] = test system: NCI-H460 lung
[53] = test system: HCC-2998 colon
[54] = test system: 786-0 renal
[55] = test system: OVCAR-4 ovarian
[56] = test system: SK-MEL-5 melanoma
[57] = test system: BT-549 breast

N=C(N)SCc1ccc2c(c1)S(=O)(=O)c1ccccc1O2
TGI [1]: 32.7 µM | TGI [2]: 93.1 µM | TGI [3]: 34.9 µM | TGI [4]: > 100 µM | TGI [5]: 33.1 µM | TGI [6]: > 100 µM | TGI [7]: 77 µM | TGI [8]: 42.4 µM | TGI [9]: 48.9 µM | TGI [10]: > 100 µM | TGI [11]: 78.7 µM | TGI [12]: > 100 µM | TGI [13]: 47.3 µM | TGI [14]: 47.5 µM | TGI [15]: 40.5 µM | TGI [16]: > 100 µM | TGI [17]: 60.2 µM | TGI [18]: 55.7 µM | TGI [19]: 34.3 µM | TGI [20]: > 100 µM | TGI [21]: 35.2 µM | TGI [22]: 37.4 µM | TGI [23]: 31.9 µM | TGI [24]: 56.8 µM | TGI [25]: 34.5 µM | TGI [26]: 29.7 µM | TGI [27]: 73.8 µM | TGI [28]: 87.9 µM | TGI [29]: 53.2 µM | TGI [30]: 33.8 µM | TGI [31]: > 100 µM | TGI [32]: > 100 µM | TGI [33]: 35.2 µM | TGI [34]: > 100 µM | TGI [35]: 63.1 µM | TGI [36]: 51.7 µM | TGI [37]: 38.2 µM | TGI [38]: 62.5 µM | TGI [39]: 28.7 µM | TGI [40]: 34.7 µM | TGI [41]: 43.4 µM | TGI [42]: > 100 µM | TGI [43]: 35.1 µM | TGI [44]: > 100 µM | TGI [45]: > 100 µM | TGI [46]: 53 µM | TGI [47]: 34.7 µM | TGI [48]: 39.8 µM | TGI [49]: 31.5 µM | TGI [50]: 42.8 µM | TGI [51]: > 100 µM | TGI [52]: 53.1 µM | TGI [53]: 56.8 µM | TGI [54]: > 100 µM | TGI [55]: 66.9 µM

Clc1ccc(/C=C/c2nc(-c3ccccc3)cn3c2nc2ccccc23)cc1Cl
TGI [1]: > 100 µM | TGI [2]: > 100 µM | TGI [3]: > 100 µM | TGI [4]: > 100 µM | TGI [5]: > 100 µM | TGI [6]: > 100 µM | TGI [7]: > 100 µM | TGI [8]: > 100 µM | TGI [9]: > 100 µM | TGI [10]: > 100 µM | TGI [12]: > 100 µM | TGI [13]: > 100 µM | TGI [14]: > 100 µM | TGI [15]: > 100 µM | TGI [16]: 49.7 µM | TGI [17]: > 100 µM | TGI [18]: > 100 µM | TGI [19]: > 100 µM | TGI [20]: > 100 µM | TGI [21]: > 100 µM | TGI [22]: > 100 µM | TGI [23]: > 100 µM | TGI [25]: > 100 µM | TGI [26]: > 100 µM | TGI [27]: > 100 µM | TGI [28]: > 100 µM | TGI [29]: > 100 µM | TGI [30]: > 100 µM | TGI [31]: > 100 µM | TGI [32]: 48 µM | TGI [33]: > 100 µM | TGI [34]: > 100 µM | TGI [35]: > 100 µM | TGI [37]: > 100 µM | TGI [38]: > 100 µM | TGI [56]: > 100 µM | TGI [57]: > 100 µM | TGI [40]: > 100 µM | TGI [41]: > 100 µM | TGI [43]: > 100 µM | TGI [44]: > 100 µM | TGI [45]: > 100 µM | TGI [46]: > 100 µM | TGI [47]: > 100 µM | TGI [48]: > 100 µM | TGI [49]: > 100 µM | TGI [50]: > 100 µM | TGI [51]: > 100 µM | TGI [52]: > 100 µM | TGI [53]: > 100 µM | TGI [54]: > 100 µM | TGI [55]: > 100 µM
